Test results reported in patent US20230265151A1, “GIP/GLP1 CO-AGONIST COMPOUNDS” (priority 2020, published 2023).
Where two headings read alike, the source gives them in different places.

Tests used:
Type in all cases: cell-based
hGLP-1R = hGLP-1R (Homo sapiens, UniProt P43220); assay: Functional cAMP formation (HTRF) in HEK-293 clonal cells expressing hGLP-1R, 0.1% bovine casein, without or with 1.0% human serum albumin; set-up: expressed in transfected cells; conditions: 37° C.; for EC50: geometric mean, read-out: hGLP-1R EC50, nM (SEM, n); for Emax: read-out: hGLP-1R Emax, % ± SEM
In short: (§1)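 Cells were stimulated with peptide for 30 min at 37° C, then intracellular cAMP was measured by competitive HTRF (665/620 nm ratio) and converted to nM using a cAMP standard curve. Relative EC50 and Emax came from four-parameter logistic fits of percent maximal response against peptide concentration.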

hGCGR = target: T1, hGCGR (Homo sapiens, UniProt P47871); assay: Functional cAMP formation (HTRF) in HEK-293 clonal cells expressing hGCGR, 0.1% bovine casein, without or with 1.0% human serum albumin; conditions: read-out: hGCGR EC50, nM (SEM, n)
T1 construct: expressed in transfected cells
In short: as §1

hGIPR = target: T2, hGIPR (Homo sapiens, UniProt P48546); assay: Functional cAMP formation (HTRF) in HEK-293 clonal cells expressing hGIPR, 0.1% bovine casein, without or with 1.0% human serum albumin; conditions: 37° C.; for EC50: geometric mean, read-out: hGIPR EC50, nM (SEM, n); for Emax: read-out: hGIPR Emax, % ± SEM
T2 construct: expressed in transfected cells
T2 sequence (P48546 22-466): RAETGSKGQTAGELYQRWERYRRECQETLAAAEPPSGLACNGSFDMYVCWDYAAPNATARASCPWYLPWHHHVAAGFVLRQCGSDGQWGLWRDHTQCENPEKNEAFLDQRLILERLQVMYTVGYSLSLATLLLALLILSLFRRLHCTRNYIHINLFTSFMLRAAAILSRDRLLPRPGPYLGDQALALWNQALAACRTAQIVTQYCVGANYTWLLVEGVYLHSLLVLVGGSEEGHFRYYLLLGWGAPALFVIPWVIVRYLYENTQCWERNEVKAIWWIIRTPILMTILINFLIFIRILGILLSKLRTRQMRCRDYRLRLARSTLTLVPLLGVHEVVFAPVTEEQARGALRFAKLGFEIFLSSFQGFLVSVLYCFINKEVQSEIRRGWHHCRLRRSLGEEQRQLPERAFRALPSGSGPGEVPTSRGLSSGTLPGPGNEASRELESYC
In short: as §1

[1] = 0.1% bovine casein and 1.0% human serum albumin
[2] = cAMP, 0.1% bovine casein (no human serum albumin)

hGLP-1R, sequence (P43220 24-463): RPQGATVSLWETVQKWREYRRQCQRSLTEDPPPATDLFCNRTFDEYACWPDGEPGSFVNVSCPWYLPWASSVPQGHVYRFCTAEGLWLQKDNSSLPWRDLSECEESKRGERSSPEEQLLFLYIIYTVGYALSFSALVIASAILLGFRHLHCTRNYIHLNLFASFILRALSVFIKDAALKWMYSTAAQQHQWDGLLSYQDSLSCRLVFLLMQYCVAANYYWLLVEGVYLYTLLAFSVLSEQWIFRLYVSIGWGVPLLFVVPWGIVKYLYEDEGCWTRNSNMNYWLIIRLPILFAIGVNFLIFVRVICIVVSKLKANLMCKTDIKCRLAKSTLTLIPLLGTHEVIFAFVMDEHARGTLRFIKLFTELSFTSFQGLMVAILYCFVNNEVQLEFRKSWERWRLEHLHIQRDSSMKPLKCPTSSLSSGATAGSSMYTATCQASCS
T1 sequence (P47871 26-477): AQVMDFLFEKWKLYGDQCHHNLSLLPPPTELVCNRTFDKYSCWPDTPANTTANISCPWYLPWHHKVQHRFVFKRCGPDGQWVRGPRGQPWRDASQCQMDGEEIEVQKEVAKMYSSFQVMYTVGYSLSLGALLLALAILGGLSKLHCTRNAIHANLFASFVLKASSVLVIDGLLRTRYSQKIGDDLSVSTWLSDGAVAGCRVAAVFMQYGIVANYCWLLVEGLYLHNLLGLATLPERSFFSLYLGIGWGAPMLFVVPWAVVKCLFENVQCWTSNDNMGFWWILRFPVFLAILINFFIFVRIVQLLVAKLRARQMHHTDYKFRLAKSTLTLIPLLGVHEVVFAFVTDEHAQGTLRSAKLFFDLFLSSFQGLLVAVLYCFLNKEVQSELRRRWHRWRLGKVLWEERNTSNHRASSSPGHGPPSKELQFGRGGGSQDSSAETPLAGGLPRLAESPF

SMILES: CC[C@H](C)[C@H](NC(=O)[C@H](CC(C)C)NC(=O)[C@](C)(Cc1ccc(O)cc1)NC(=O)[C@@H](CCC(=O)O)NC(=O)[C@@H](NC(=O)[C@H](Cc1ccccc1)NC(=O)[C@H](CCC(=O)O)NC(=O)C(C)(C)NC(=O)[C@H](CCC(N)=O)NC(=O)[C@H](C)NC(=O)[C@H](CCCCNC(=O)COCCOCCNC(=O)COCCOCCNC(=O)COCCOCCNC(=O)CC[C@H](NC(=O)CCCCCCCCCCCCC(=O)O)C(=O)O)NC(=O)[C@H](CCCN)NC(=O)[C@H](CC(=O)O)NC(=O)[C@H](CC(C)C)NC(=O)[C@](C)(CC(C)C)NC(=O)[C@@H](NC(=O)[C@H](CO)NC(=O)[C@H](Cc1ccncc1)NC(=O)[C@H](CC(=O)O)NC(=O)[C@H](CO)NC(=O)[C@@H](NC(=O)[C@](C)(Cc1ccccc1F)NC(=O)[C@@H](NC(=O)CNC(=O)[C@H](CCC(=O)O)NC(=O)C(C)(C)NC(=O)[C@@H](N)Cc1ccc(O)cc1)[C@@H](C)O)[C@@H](C)O)[C@@H](C)CC)[C@@H](C)CC)C(=O)N[C@@H](CCC(=O)O)C(=O)NCC(=O)NCC(=O)N1CCC[C@H]1C(=O)N[C@@H](CO)C(=O)N[C@@H](CO)C(=O)NCC(=O)N[C@@H](C)C(=O)N1CCC[C@H]1C(=O)N1CCC[C@H]1C(=O)N1CCC[C@H]1C(=O)N[C@@H](CO)C(=O)N[C@@H](CCCCNC(=O)COCCOCCNC(=O)COCCOCCNC(=O)COCCOCCNC(=O)CC[C@H](NC(=O)CCCCCCCCCCCCC(=O)O)C(=O)O)C(N)=O [Example 225]
- EC50 (hGLP-1R; [1]): 51.6 nM
- Emax (hGLP-1R; HEK293, percent of maximal response to GLP-1(7-36)NH2, 0.1% bovine casein, arithmetic mean): 92.1%
- EC50 (hGCGR; 0.1% bovine casein and 1.0% human serum albumin, 37° C., geometric mean): > 9950 nM
- EC50 (hGCGR; cAMP, incubated at 37° C., 0.1% bovine casein (no human serum albumin), geometric mean): > 9950 nM
- EC50 (hGIPR; [1]): 1.81 nM
- Emax (hGIPR; HEK293, 0.1% bovine casein and 1.0% human serum albumin, percent of maximal response to GIP(1-42)NH2): 67.5%
- Emax (hGIPR; HEK293, percent of maximal response to GIP(1-42)NH2, 0.1% bovine casein, arithmetic mean): 105%

SMILES: CC[C@H](C)[C@H](NC(=O)[C@H](CC(C)C)NC(=O)[C@](C)(Cc1ccc(O)cc1)NC(=O)[C@@H](CCC(=O)O)NC(=O)[C@@H](NC(=O)[C@H](Cc1ccccc1)NC(=O)[C@H](CCC(=O)O)NC(=O)C(C)(C)NC(=O)[C@H](CCC(N)=O)NC(=O)[C@H](C)NC(=O)[C@H](CCCCNC(=O)COCCOCCNC(=O)CC[C@H](NC(=O)CCCCCCCCCCCCC(=O)O)C(=O)O)NC(=O)[C@H](CCCN)NC(=O)[C@H](CC(=O)O)NC(=O)[C@H](CC(C)C)NC(=O)[C@](C)(CC(C)C)NC(=O)[C@@H](NC(=O)C(C)(C)NC(=O)[C@@H](NC(=O)[C@H](CC(=O)O)NC(=O)[C@H](CO)NC(=O)[C@@H](NC(=O)[C@](C)(Cc1ccccc1F)NC(=O)[C@@H](NC(=O)CNC(=O)[C@H](CCC(=O)O)NC(=O)C(C)(C)NC(=O)[C@@H](N)Cc1ccc(O)cc1)[C@@H](C)O)[C@@H](C)O)C(C)C)[C@@H](C)CC)[C@@H](C)CC)C(=O)N[C@@H](CCCCNC(=O)COCCOCCNC(=O)CC[C@H](NC(=O)CCCCCCCCCCCCC(=O)O)C(=O)O)C(=O)NCC(=O)NCC(=O)N1CCC[C@H]1C(=O)N[C@@H](CO)C(=O)N[C@@H](CO)C(=O)NCC(=O)N[C@@H](C)C(=O)N1CCC[C@H]1C(=O)N1CCC[C@H]1C(=O)N1CCC[C@H]1C(=O)N[C@@H](CO)C(N)=O [Example 399]
- Emax (hGLP-1R; HEK293, cAMP, 0.1% bovine casein and 1.0% human serum albumin, percent of maximal response to GLP-1(7-36)NH2): 89.7%
- Emax (hGLP-1R; HEK293, cAMP, 0.1% bovine casein, percent of maximal response to GLP-1(7-36)NH2, arithmetic mean): 91.9%
- EC50 (hGLP-1R; [2]): 0.259 nM
- EC50 (hGCGR; cAMP, 37° C., 0.1% bovine casein (no human serum albumin), geometric mean): > 9950 nM
- EC50 (hGCGR; cAMP, 37° C., 0.1% bovine casein and 1.0% human serum albumin, geometric mean (SEM, n)): > 9950 nM
- Emax (hGIPR; HEK293, cAMP, 0.1% bovine casein and 1.0% human serum albumin, percent of maximal response to GIP(1-42)NH2): 86.8%
- EC50 (hGIPR; [2]): 0.0186 nM
